Results reported in patent US6716852B2, “Amino acid derivatives and use thereof as NEP, ACE and ECE inhibitors” (Les Laboratories Servier, priority 2000, dated 2004).

Columns and labels:
Assay type in all cases: biochemical
Neutral endopeptidase = target: T1, Neutral endopeptidase (Oryctolagus cuniculus, UniProt P08049); assay: Inhibition of neutral endopeptidase (fluorescent substrate DGNPA); conditions: NEP purified from rabbit kidney
T1 construct: Neutral endopeptidase is purified from rabbit kidney; from tissue; host or cells: rabbit kidney
T1 sequence (P08049 1-750): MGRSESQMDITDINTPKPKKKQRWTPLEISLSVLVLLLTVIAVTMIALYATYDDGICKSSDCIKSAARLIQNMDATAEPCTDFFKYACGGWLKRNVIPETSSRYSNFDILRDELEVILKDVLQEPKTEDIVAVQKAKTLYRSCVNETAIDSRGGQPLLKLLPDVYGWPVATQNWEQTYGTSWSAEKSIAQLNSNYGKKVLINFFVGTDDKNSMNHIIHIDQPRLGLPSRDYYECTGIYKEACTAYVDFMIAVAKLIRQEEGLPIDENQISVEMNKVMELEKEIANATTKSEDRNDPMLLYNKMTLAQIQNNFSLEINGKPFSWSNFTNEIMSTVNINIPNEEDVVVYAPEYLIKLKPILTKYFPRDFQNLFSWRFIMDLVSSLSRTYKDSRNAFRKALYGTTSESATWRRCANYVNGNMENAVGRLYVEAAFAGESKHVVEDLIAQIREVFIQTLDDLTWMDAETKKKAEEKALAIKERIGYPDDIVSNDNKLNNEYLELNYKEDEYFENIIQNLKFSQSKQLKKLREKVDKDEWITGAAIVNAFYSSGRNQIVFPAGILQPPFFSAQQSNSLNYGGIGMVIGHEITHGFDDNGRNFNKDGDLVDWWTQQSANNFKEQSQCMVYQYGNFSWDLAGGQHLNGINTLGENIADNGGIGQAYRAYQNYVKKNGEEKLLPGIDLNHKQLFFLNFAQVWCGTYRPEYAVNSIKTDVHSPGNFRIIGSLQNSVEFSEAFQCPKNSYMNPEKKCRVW
From the text: Neutral endopeptidase is purified from rabbit kidney according to the procedure described by Aubry et al. (Biochem. Cell Biol., 1987, 65, pp. 1037-1042).

[1] = target: T2, angiotensin I converting enzyme (ACE) (Rattus norvegicus, UniProt P47820); assay: Inhibition of angiotensin I converting enzyme (substrate N-Cbz-Phe-His-Leu); conditions: ACE purified from rat testicle
T2 construct: ACE is purified from rat testicle; from tissue; host or cells: rat testicle
T2 sequence (P47820 1-775 isoform P47820-2): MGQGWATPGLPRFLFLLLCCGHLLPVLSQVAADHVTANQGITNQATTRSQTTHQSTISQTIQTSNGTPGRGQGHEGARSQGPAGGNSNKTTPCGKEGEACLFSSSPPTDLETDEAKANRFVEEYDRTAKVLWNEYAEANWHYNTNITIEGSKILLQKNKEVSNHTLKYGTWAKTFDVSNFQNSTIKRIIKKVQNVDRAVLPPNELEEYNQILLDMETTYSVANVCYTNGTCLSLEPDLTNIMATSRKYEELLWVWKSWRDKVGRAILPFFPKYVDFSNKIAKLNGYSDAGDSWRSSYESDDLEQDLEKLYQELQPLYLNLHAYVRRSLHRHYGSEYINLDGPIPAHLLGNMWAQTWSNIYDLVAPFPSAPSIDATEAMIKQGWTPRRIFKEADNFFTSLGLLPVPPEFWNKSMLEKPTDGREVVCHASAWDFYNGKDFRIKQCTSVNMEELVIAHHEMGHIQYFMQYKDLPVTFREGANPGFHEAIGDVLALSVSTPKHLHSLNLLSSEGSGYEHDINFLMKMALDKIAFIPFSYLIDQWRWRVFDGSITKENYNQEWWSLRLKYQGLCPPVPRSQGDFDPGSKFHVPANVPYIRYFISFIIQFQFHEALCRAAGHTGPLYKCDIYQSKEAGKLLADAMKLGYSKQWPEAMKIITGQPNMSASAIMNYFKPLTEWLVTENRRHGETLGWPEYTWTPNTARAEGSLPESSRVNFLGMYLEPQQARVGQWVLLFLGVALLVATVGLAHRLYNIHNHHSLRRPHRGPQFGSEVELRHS
Description: ACE is purified from rat testicle according to the procedure described by Pantaliano et al. (Biochemistry, 1984, 23, pp. 1037-1042).
The enzyme activity is measured using the synthetic substrate N-Cbz-Phe-His-Leu, Km=[…] (Piquilloud Y. et al., Biochem. Biophys. Acta, 1970, 206, pp. 136-142).

ECE-1c = target: T3, ECE-1c (Homo sapiens, UniProt P42892); assay: Inhibition of endothelin converting enzyme (radiolabelled BigET-1 (19-35) substrate); conditions: ECE-1c expressed in Cos-7 cells; preincubated 10 minutes at 37° C., pH 6.5; read-out: Ki, inhibition of big endothelin converting enzyme
T3 construct: made in house; host or cells: Cos-7 cells (pcDNA3 vector, electroporation); membrane fraction extracted with 1% beta-octylglucose
T3 sequence (P42892 1-754 isoform P42892-3): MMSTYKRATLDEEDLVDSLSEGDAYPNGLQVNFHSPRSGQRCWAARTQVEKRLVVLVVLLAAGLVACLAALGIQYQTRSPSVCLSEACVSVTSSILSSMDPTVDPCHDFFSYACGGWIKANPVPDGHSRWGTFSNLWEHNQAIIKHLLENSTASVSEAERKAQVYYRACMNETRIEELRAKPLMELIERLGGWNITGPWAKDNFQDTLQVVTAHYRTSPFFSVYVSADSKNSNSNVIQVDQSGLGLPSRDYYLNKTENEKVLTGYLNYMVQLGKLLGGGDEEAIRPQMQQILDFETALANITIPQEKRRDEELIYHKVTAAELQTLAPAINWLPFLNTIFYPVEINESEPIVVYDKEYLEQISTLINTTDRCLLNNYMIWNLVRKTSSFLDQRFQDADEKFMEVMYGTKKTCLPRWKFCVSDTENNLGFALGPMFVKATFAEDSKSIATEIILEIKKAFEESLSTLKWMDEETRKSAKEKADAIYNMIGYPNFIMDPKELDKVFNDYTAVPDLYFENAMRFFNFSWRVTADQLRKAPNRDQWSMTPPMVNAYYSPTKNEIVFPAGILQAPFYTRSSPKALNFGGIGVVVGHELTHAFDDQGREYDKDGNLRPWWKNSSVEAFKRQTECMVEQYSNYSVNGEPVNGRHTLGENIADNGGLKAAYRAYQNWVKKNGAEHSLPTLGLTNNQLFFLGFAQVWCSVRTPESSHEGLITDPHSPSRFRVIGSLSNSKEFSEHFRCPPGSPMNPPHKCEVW
Description: The cDNA of ECE-1c (membrane form of the enzyme, Biochem. J., 1997, 328, pp. 871-877), was inserted into a pcDNA3 eucaryotic expression vector and then transfected by electroporation and expressed in Cos-7 cells.
To measure the ECE activity, the cells are homogenised and the membrane fraction is recovered. The enzyme is extracted by dissolution in β-octylglucose (1%).
The peptide BigET-1 (19-35) was prepared by solid phase synthesis in Fmoc chemistry and purified by semi-preparative HPLC. The propionylation of the peptide was effected by the action of N-succinimidyl-[2,3-^3H]-propionate on the peptide BigET-1 (19-35) and the radiolabelled product was purified by HPLC. The specific activity of the substrate is 97 Ci/mmole.
ECE-1c (10 μl of a solution diluted to 1/10) is dissolved in 400 μl of Trismaleate 50 mM, pH 6.5, in the presence of 250 mM NaCl. The reaction is initiated by the addition of 10 μl of the radioactive substrate (final concentration 1×10^−9 M). After incubation for 1 hour at 37° C., the reaction is stopped by the addition of 600 μl of ethyl acetate. The metabolite is separated from the intact substrate by liquid—liquid extraction. The radioactivity of the metabolite is determined by liquid scintillation. The kinetic constants of the substrate are: Km=[…] and Vmax=2.98±0.24 mmol/mg. prot./min.
The controls of 0% and 100% degradation are obtained, respectively, by incubation of the substrate with the inactivated enzyme and with the native enzyme in the absence of inhibitors.

Row | Ki (Neutral endopeptidase) | Ki [1] | Ki (ECE-1c) | Structure (SMILES)
1 | 3.28 ± 0.35 nM | 4.09 ± 0.49 nM | 24.4 ± 1.4 nM | O=C(N[C@@H](Cc1c[nH]c2ccccc12)C(=O)O)C(CS)C1CCc2cc(Br)ccc21 (stereo partly drawn) [13 (2S-3R-4S), N-[2-(5-Bromo-2,3-dihydro-1H-inden-1-yl)-3-mercaptopropanoyl]-tryptophan]
2 | 2.91 ± 0.67 nM | 1.32 ± 0.17 nM | 23.3 ± 3.2 nM | O=C(N[C@@H](Cc1c[nH]c2ncccc12)C(=O)O)C(CS)C1CCc2cc(Br)ccc21 (stereo partly drawn) [33 (2S-3R-4S), N-[2-(5-Bromo-2,3-dihydro-1H-inden-1-yl)-3-mercaptopropanoyl]-3-(1H-pyrrolo [2,3-b]pyridin-3-yl)alanine]
3 | 10.2 ± 0.3 nM | 3.7 ± 0.38 nM | 21.2 ± 2.5 nM | O=C(N[C@@H](Cc1c[nH]c2c1ccc1cccnc12)C(=O)O)C(CS)C1CCc2cc(Br)ccc21 (stereo partly drawn) [63 (2S-3R-4S), N-[2-(5-Bromo-2,3-dihydro-1H-inden-1-yl)-3-mercaptopropanoyl]-3-(1H-pyrrolo[3,2-h]quinolin-3-yl)alanine]
